# How the values were obtained:
# Myzus persicae = experiment: Myzus test (MYZUPE spray treatment); type: in vivo; conditions: Myzus persicae, 144 h, MYZUPE, 6 dat
# Protocol: Myzus test (Myzupe spray treatment)
# After 6 days, the efficacy in % is determined.
# Myzus Test (MYZUPE Spray Treatment)
# Ctenocephalides felis = Ctenocephalides felis oral (CTECFE); type: in vivo; conditions: Ctenocephalides felis, po, 48 h, CTECFE, 2 dat
# Protocol: Ctenocephalides felis Oral (CTECFE)
# Solvent: 1 part by weight of dimethyl sulphoxide
# For the purpose of producing a suitable preparation of active compound, 10 mg of active compound are mixed with 0.5 ml of dimethyl sulphoxide. A portion of the concentrate is diluted with citrated cattle blood, and the desired concentration is prepared.
# (§1) About 20 unfed adult fleas (Ctenocephalides felis) are placed into a chamber which is closed at the top and bottom with gauze. A metal cylinder whose bottom end is closed with parafilm is placed onto the chamber. The cylinder contains the blood/active compound preparation, which can be taken up by the fleas through the parafilm membrane. After 2 days, the kill in % is determined.
# For the purpose of preparing an appropriate active compound formulation, 10 mg of active compound are mixed with 0.5 ml of dimethyl sulphoxide. A portion of the concentrate is diluted with citrated cattle blood, and the desired concentration is prepared.
# as §1, with “membrane.” for “membrane. After 2 days, the kill in % is determined.”
# Musca domestica = Musca domestica test (MUSCDO); type: in vivo; conditions: Musca domestica, 48 h, MUSCDO, 2 dat
# Protocol: Musca domestica Test (MUSCDO)
# (§2) Solvent: dimethyl sulphoxide
# Vessels containing a sponge treated with the active compound preparation of the desired concentration are populated with adult Musca domestica.
# After 2 days, the kill in % is determined.
# Vessels containing a sponge treated with the active compound formulation of the desired concentration are populated with adult Musca domestica.
# After the desired period of time, the kill in % is determined.
# Boophilus microplus = Boophilus microplus test (BOOPMI injection); type: in vivo; conditions: BOOPMI injection, 7 dat
# Protocol: Boophilus microplus Test (BOOPMI Injection)
# as §2
# The active compound solution is injected into the abdomen (Boophilus microplus), and the animals are transferred into dishes and stored in a climate-controlled room. The activity is assessed by laying of fertile eggs.
# The active compound solution is injected into the abdomen (Boophilus microplus), and the animals are transferred into dishes and stored in a climate-controlled room.
# The activity is assessed by laying of fertile eggs. 100% means that none of the ticks has laid any fertile eggs.
# Plutella xylostella = Plutella xylostella spray test (PLUTMA); type: in vivo; conditions: 168 h, 7 dat
# Description: Plutella xylostella Spray Test (PLUTMA)
# (§3) Solvent: 7 parts by weight of dimethylformamide
# (§4) Emulsifier: 2 parts by weight of alkylaryl polyglycol ether
# (§5) If the addition of ammonium salts or/and penetrants is required, these are in each case added in a concentration of 1000 ppm to the solution of the preparation.
# Spodoptera frugiperda [1] = experiment: Spodoptera frugiperda spray test (SPODFR), cotton leaves, ppm; type: in vivo; conditions: 168 h, 7 dat
# Description: Spodoptera frugiperda Spray Test (SPODFR)
# as §3, §4, §5
# Cotton leaves (Gossypium hirsutum) are sprayed with an active compound formulation of the desired concentration and populated with caterpillars of the armyworm (Spodoptera frugiperda).
# Heliothis armigera = Heliothis armigera spray test (HELIAR); type: in vivo; conditions: Helicoverpa armigera, 168 h, 7 dat
# Description: Heliothis armigera Spray Test (HELIAR)
# as §3, §4, §5
# Tetranychus urticae = Tetranychus urticae spray test, OP-resistant (TETRUR), bean plants, ppm; type: in vivo; conditions: 168 h, 7 dat
# Description: Tetranychus urticae Spray Test, OP-Resistant (TETRUR)
# as §3, §4, §5
# Nilaparvata lugens = Nilaparvata lugens spray test (NILALU); type: in vivo; conditions: 168 h, 7 dat
# Description: Nilaparvata lugens Spray Test (NILALU)
# as §5
# [2] = test system: Frankliniella occidentalis; experiment: Frankliniella occidentalis spray test (FRANOC); type: in vivo; conditions: 168 h, 500 g/ha, 7 dat
# Description: Frankliniella occidentalis Spray Test (FRANOC)
# as §5
# Phaedon cochleariae [3] = experiment: Phaedon test (PHAECO spray treatment), Chinese cabbage leaf discs; conditions: Phaedon cochleariae, in Brassica rapa, foliar, 168 h, read-out: % Activity dat
# [4] = test system: Boophilus microplus females of the SP-resistant Parkhurst strain; experiment: Boophilus microplus test (DIP); type: in vivo; conditions: Rhipicephalus microplus, 168 h; BOOPMI DIP; 20 ppm; 7 dat
# Protocol: Boophilus microplus Test (DIP)
# Test animals: adult engorged Boophilus microplus females of the SP-resistant Parkhurst strain
# as §2
# 10 mg of active compound are dissolved in 0.5 ml of dimethyl sulphoxide. For the purpose of preparing a suitable formulation, the active compound solution is diluted with water to the concentration desired in each case.
# This active compound preparation is pipetted into tubes. 8-10 ticks are transferred into a further tube with holes. The tube is immersed into the active compound formulation, and all ticks are completely wetted. After the liquid has rum off, the ticks are transferred to filter discs in plastic dishes and kept in a climatized room. The activity is assessed after 7 days by laying of fertile eggs. Eggs whose fertility is not outwardly visible are stored in glass tubes in a climate-controlled cabinet until the larvae hatch. An efficacy of 100% means that none of the ticks has laid any fertile eggs.
# 10 mg of active compound are dissolved in 0.5 ml of dimethyl sulphoxide. For the purpose of preparing a suitable formulation, the active compound solution is diluted with water to the concentration desired in each case (in ppm).
# This active compound preparation is pipetted into tubes. 8-10 ticks are transferred into a further tube with holes. The tube is immersed into the active compound formulation, and all ticks are completely wetted. After the liquid has run out, the ticks are transferred onto filter discs in plastic dishes and stored in a climate-controlled room.
# The activity is assessed after the desired time by laying of fertile eggs. Eggs whose fertility is not evident from the outside are kept in glass tubes in a climate-controlled cabinet until the larvae have hatched. An effect of 100% means that none of the ticks has laid any fertile eggs.
# Phaedon cochleariae [5] = experiment: Phaedon cochleariae spray test (PHAECO), cabbage leaves, ppm; type: in vivo; conditions: 168 h, 7 dat
# Description: Phaedon cochleariae Spray Test (PHAECO)
# as §3, §4, §5
# Spodoptera frugiperda [6] = experiment: Spodoptera frugiperda test (SPODFR spray treatment), maize leaf discs; type: in vivo; conditions: Spodoptera frugiperda, foliar, 168 h; SPODFR; 100 g/ha; 7 dat
# Description: Spodoptera frugiperda Test (SPODFR Spray Treatment)
# Liriomyza trifolii = Liriomyza trifolii spray test (LIRITR); type: in vivo; conditions: 168 h, 7 dat
# Description: Liriomyza trifolii Spray Test (LIRITR)
# as §5
Compound,inhibition at 20 ppm (Plutella xylostella),inhibition at 20 ppm (Spodoptera frugiperda [1]),inhibition at 500 g/ha (Nilaparvata lugens),inhibition at 500 g/ha [2],inhibition at 20 g/ha (Phaedon cochleariae [3]),inhibition at 100 g/ha (Myzus persicae),inhibition at 4 ppm (Tetranychus urticae),further results
Cn1nc(C(F)(F)C(F)(F)F)c(C(F)(F)F)c1C(=O)Nc1ccc(Cl)c(C(=O)NC2CC2c2ccccc2)c1 (centres unmarked) [Ik-47],0%,0%,0%,0%,0%,–,–,inhibition at 500 g/ha (Myzus persicae; 500 g/ha): 0%; inhibition at 20 ppm (Ctenocephalides felis; 20 ppm): 50%; inhibition at 100 ppm (Musca domestica): 0%; % Activity dat (Boophilus microplus; 0.8 μg/animal): 50%; inhibition at 20 ppm (Heliothis armigera; 20 ppm): 0%; inhibition at 20 ppm (Tetranychus urticae; 20 ppm): 30%
"CN(C(=O)c1c(C(F)(F)F)c(C(F)(F)C(F)(F)F)nn1C)c1ccc(Cl)c(C(=O)NC2CC2)c1 [Ik-132, reference compound]",5%,50%,–,–,–,0%,30%,inhibition at 0.8 ppm (Ctenocephalides felis; 0.8 ppm): 30%; % Activity dat (Boophilus microplus; 0.032 μg/animal): 0%; inhibition at 20 ppm [4]: 30%; inhibition at 0.8 ppm (Phaedon cochleariae [5]; 0.8 ppm): 5%
"C[C@H]1C[C@H]1NC(=O)c1cc(NC(=O)c2c(C(F)(F)F)c(C(F)(F)C(F)(F)F)nn2C)ccc1Cl [Ik-279, reference compound]",–,–,–,–,0%,–,0%,inhibition at 100 g/ha (Spodoptera frugiperda [6]): 50%; inhibition at 20 g/ha (Myzus persicae; 20 g/ha): 0%
C[C@@H]1C[C@H]1NC(=O)c1cc(NC(=O)c2c(C(F)(F)F)c(C(F)(F)C(F)(F)F)nn2C)ccc1Cl [Ik-280],65%,40%,–,–,–,–,–,inhibition at 4 ppm (Phaedon cochleariae [5]; 4 ppm): 0%; inhibition at 100 ppm (Heliothis armigera; 100 ppm): 0%; inhibition at 100 g/ha (Nilaparvata lugens; 100 g/ha): 0%
"Cn1nc(C(F)(F)C(F)(F)F)c(C(F)(F)F)c1C(=O)Nc1ccc(Cl)c(C(=O)NC2(C(F)(F)F)CC2)c1 [Ik-296, reference compound]",–,–,0%,60%,–,0%,–,inhibition at 500 g/ha (Liriomyza trifolii): 0%
